Test results: PubChem BioAssay (NCI)
“And” between values parts separate entries of the source, which are not always exact repeats. Equal entries are not always repeated.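 96-well plates; 48 h exposure; 5 concentrations. Endpoints by linear interpolation between flanking doses. Not reached: highest tested concentration assigned. Here, GI50 denotes the concentration required for 50% inhibition of growth. TGI: concentration producing complete growth inhibition.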 Where a SMILES comes first, the peptide text is derived from it. The star is where a group is joined. Trt = c1ccc(C(c2ccccc2)(c2ccccc2)*)cc1; Cbz = O=C(OCc1ccccc1)*

tested on: MDA-MB-468 breast; assay: inhibition of tumour cell growth, NCI panel, 48 h

Compound | GI50 | TGI
COc1cc(/C=N/NC(=O)c2ccccc2Nc2cccc(C(F)(F)F)c2)cc(OC)c1OC | 1.75 µM | 11.8 µM
Nc1nc(N)c2c(n1)NC(c1sc(Cl)nc1Cl)CC(c1ccc3c(c1)OCO3)=N2 (configuration not stated) | 1.65 µM | 13.3 µM
COc1cc(OC)c(/C=C/S(=O)(=O)Cc2ccc(OC)c(NCC(=O)NO)c2)c(OC)c1 | 0.0293 µM | > 100 µM
CN=C(N)N/N=C(\C)c1ccc2c(c1)Cc1ccccc1-2 | 1.79 µM | 4.4 µM
Cn1cc(C2=C(c3cn(CCCCC(=N)N)c4ccccc34)C(=O)NC2=O)c2ccccc21 | 9.81 µM | > 25 µM
Cn1cc(-c2nc(N[C@@H]3CCCC[C@@H]3N)c(F)c3c2C(=O)NC3)cn1 | 13 µM and 16.9 µM | 44.9 µM and 69.9 µM
COc1ccc(-c2n/c(=C\c3c(O)[nH]c4ccccc34)cc3c2=Nc2ccccc2-3)cc1 | 0.368 µM | 1.43 µM
O=C(CCCCCCCCC(=O)N/N=C\c1cc(Cl)ccc1O)N/N=C\c1cc(Cl)ccc1O | 1.44 µM | 7.36 µM
Cc1c(Cl)cccc1NC(=O)c1sc2nc3c(cc2c1N)CCCC3 | 0.394 µM | > 100 µM
O=C(C=C=Nc1ccccc1)C(=O)N=C=Cc1ccccc1 | 2.1 µM | 4.93 µM
CCCN1CCC=C(c2ccc(Nc3nc(Nc4ccccc4C(N)=O)c4cc[nH]c4n3)c(C)c2)C1 | > 14.6 µM | > 25 µM
Nc1c(C(=O)Nc2cccc3ccccc23)sc2nc3c(cc12)C(=O)CCC3 | 0.195 µM | > 45 µM
O=C1/C(=C\c2ccccc2)C2OCC=C3CN4CCC56c7ccccc7N1C5C2C3CC46 (configuration not stated) | 3.31 µM | 26.1 µM
C=C(C)[C@@H]1CC[C@]2(C(=O)NC(C)=O)CC[C@]3(C)[C@H](CC[C@@H]4[C@@]5(C)CCCNC(C)(C)[C@@H]5CC[C@]43C)[C@@H]12 | 1.6 µM | 3.1 µM
Oc1ccc(Cl)cc1/C=N\NC(=S)N/N=C/c1cc(Cl)ccc1O | 1.76 µM | 7.35 µM
COc1cccc2c1cc1c3c(cc4c(c32)OCO4)C(=O)N1 | 2.04 µM | 6.22 µM
Cc1cc2nc3c4ccc(Br)cc4n(CCN(C)C)c3nc2cc1C | 1.21 µM | 2.91 µM
CCN(CC)Cc1cc(Nc2c3ccccc3nc3cc(Cl)ccc23)ccc1O | 1.5 µM | 3.06 µM
Cc1c(Cl)c(C)c(Cc2c(C)c(Cl)c(C)c(Cl)c2O)c(O)c1Cl | 1.82 µM | 8.4 µM
CCCCCCCCCCSC(=N)N | 1.66 µM | 3.2 µM
C/C(=N\NC(=O)CSc1nc2sc3c(c2c(=O)n1-c1ccccc1)CCC(C)C3)c1ccc(Cl)cc1 (configuration not stated) | 1.55 µM | 5.92 µM
NC(=O)c1ccc(N(C(N)=O)c2c(F)cccc2F)nc1-c1ccc(F)cc1F | > 100 µM | > 100 µM
C=CC(C)(O)CC/C=C(\CO)C(=O)OC1C(C)OC(O[C@](C)(C=C)CC/C=C(\CO)C(=O)O[C@H]2C[C@@]3(C(=O)OC4OC(CO)C(O)C(O)C4OC4OC(C)C(OC5OC(CO)C(O)C5O)C(OC5OC(CO)C(O)C(O)C5O)C4O)C(CC2(C)C)C2=CCC4[C@@]5(C)CC[C@H](OC6OC(COC7OC(C)C(O)C(O)C7OC7OCC(O)C(O)C7O)C(O)C(O)C6NC(C)=O)C(C)(C)C5CC[C@@]4(C)[C@]2(C)C[C@H]3O)C(O)C1O (some centres not stated) | 0.189 µM | 0.848 µM
COc1ccc(C(=O)c2cc3c(N)c(C(=O)Nc4cccc(OC)c4)sc3nc2C)cc1 | 0.396 µM | 
CCOC(=O)c1c(NCC(=O)Nc2ccc(Br)cc2)sc2c1CCCC2 | 1.95 µM | 4.53 µM
Cc1ccc(-c2n[nH]c(=O)c3noc(-c4ccc(C)cc4)c23)cc1 | 0.37 µM | 4.88 µM
Cc1cc(Nc2nc(-c3ccncc3)nc3ccccc23)n[nH]1 | 6.81 µM | > 100 µM
COC(=O)C(CSC(c1ccccc1)(c1ccccc1)c1ccccc1)NC(=O)C(CC(N)=O)NC(=O)OCc1ccccc1 (stereo not drawn) (Cbz-Asn-Cys(Trt)-OMe; configuration not given here) | 3.13 µM | 14.6 µM
H-QIYKKYRTWYRKAWKVLGKV-NH2 | 10.9 µM | 41.9 µM
